Measurements taken from PubChem BioAssay (NCI).
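In this assay, cells in 96-well plates receive the compound at five concentrations for 48 hours. Endpoints are linearly interpolated between the surrounding concentrations. GI50: concentration for 50% inhibition of growth. The concentration for full growth arrest is given as TGI.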

What was measured:
Test in all cases: inhibition of tumour cell growth, NCI panel, 48 h
[1] = tested on: U251 CNS
[2] = tested on: UACC-257 melanoma
[3] = tested on: COLO 205 colon
[4] = tested on: NCI-H522 lung
[5] = tested on: UO-31 renal
[6] = tested on: SNB-19 CNS
[7] = tested on: PC-3 prostate
[8] = tested on: SK-MEL-2 melanoma
[9] = tested on: HCT-15 colon
[10] = tested on: LOX IMVI melanoma
[11] = tested on: SN12C renal
[12] = tested on: SF-295 CNS
[13] = tested on: KM12 colon
[14] = tested on: SK-OV-3 ovarian
[15] = tested on: MDA-MB-468 breast
[16] = tested on: MALME-3M melanoma
[17] = tested on: HS 578T breast
[18] = tested on: CCRF-CEM leukemia
[19] = tested on: DU-145 prostate
[20] = tested on: A549 NSCLC
[21] = tested on: SNB-75 CNS
[22] = tested on: RPMI-8226 leukemia
[23] = tested on: OVCAR-5 ovarian
[24] = tested on: M14 melanoma
[25] = tested on: SW-620 colon
[26] = tested on: SK-MEL-5 melanoma
[27] = tested on: EKVX NSCLC
[28] = tested on: SF-539 CNS
[29] = tested on: HOP-92 NSCLC
[30] = tested on: MCF7 breast
[31] = tested on: CAKI-1 renal
[32] = tested on: MOLT-4 leukemia
[33] = tested on: NCI/ADR-RES ovarian
[34] = tested on: NCI-H226 lung
[35] = tested on: ACHN renal
[36] = tested on: HT29 colon
[37] = tested on: HCT-116 colon
[38] = tested on: NCI-H460 lung
[39] = tested on: BT-549 breast
[40] = tested on: OVCAR-8 ovarian
[41] = tested on: MDA-MB-231 breast
[42] = tested on: 786-0 renal
[43] = tested on: SR leukemia
[44] = tested on: IGROV1 ovarian
[45] = tested on: TK-10 renal
[46] = tested on: HCC-2998 colon
[47] = tested on: HOP-62 NSCLC
[48] = tested on: NCI-H23 lung
[49] = tested on: OVCAR-4 ovarian
[50] = tested on: SF-268 CNS
[51] = tested on: UACC-62 melanoma
[52] = tested on: A498 renal
[53] = tested on: MDA-MB-435
[54] = tested on: K-562 leukemia
[55] = tested on: OVCAR-3 ovarian
[56] = tested on: HL-60(TB) leukemia
[57] = tested on: SK-MEL-28 melanoma
[58] = tested on: RXF 393 renal
[59] = tested on: T-47D breast

`Cn1cc(-c2nc(N)nnc2-c2c[nH]c3ccccc23)c2cc(Br)cnc21` showed a GI50 [1] of 0.0402 µM, a TGI [1] of 6.71 µM and a GI50 [2] of 0.0421 µM. It also gave a TGI [2] of 21.8 µM, a GI50 [3] of 0.0414 µM and a TGI [3] of 0.28 µM. It also gave a GI50 [4] of 0.0125 µM, a TGI [4] of 0.0797 µM and a GI50 [5] of 0.0711 µM. The TGI [5] was 15.2 µM, the GI50 [6] was 0.0632 µM and the TGI [6] was 10.4 µM. For the same compound, the GI50 [7] was 0.056 µM, the TGI [7] was 47.9 µM and the GI50 [8] was 0.0409 µM. It also gave a TGI [8] of 14.3 µM, a GI50 [9] of 0.0376 µM and a TGI [9] of 10.7 µM. For the same compound, the GI50 [10] was 0.0435 µM, the TGI [10] was 15.8 µM and the GI50 [11] was 0.0589 µM. It also gave a TGI [11] of 14.3 µM, a GI50 [12] of 0.0294 µM and a TGI [12] of 1.19 µM. For the same compound, the GI50 [13] was 0.0506 µM, the TGI [13] was 13.9 µM and the GI50 [14] was 0.0487 µM. It also gave a TGI [14] of 21.2 µM, a GI50 [15] of 0.02 µM and a TGI [15] of 0.0518 µM. The GI50 [16] was 0.0466 µM, the TGI [16] was 18.5 µM and the GI50 [17] was 0.0319 µM. The TGI [17] was 33.7 µM, the GI50 [18] was 0.0334 µM and the TGI [18] was > 35.5 µM. It also gave a GI50 [19] of 0.0877 µM, a TGI [19] of 22.4 µM and a GI50 [20] of 0.0625 µM. The TGI [20] was 19.3 µM, the GI50 [21] was 0.0302 µM and the TGI [21] was 18.3 µM. The GI50 [22] was 0.0708 µM, the TGI [22] was > 45.5 µM and the GI50 [23] was 0.0729 µM. For the same compound, the TGI [23] was 15.5 µM, the GI50 [24] was 0.0526 µM and the TGI [24] was 2.06 µM. The GI50 [25] was 0.0376 µM, the TGI [25] was 13.2 µM and the GI50 [26] was 0.0301 µM. The TGI [26] was 1.19 µM, the GI50 [27] was 0.0949 µM and the TGI [27] was 20.7 µM. For the same compound, the GI50 [28] was 0.0323 µM, the TGI [28] was 0.175 µM and the GI50 [29] was 3.89 µM. It also gave a TGI [29] of 25.5 µM, a GI50 [30] of 0.0275 µM and a TGI [30] of 10.6 µM. The GI50 [31] was 0.0535 µM, the TGI [31] was 17.1 µM and the GI50 [32] was 0.0505 µM. It also gave a TGI [32] of 19.2 µM, a GI50 [33] of 0.0924 µM and a TGI [33] of 0.776 µM. It also gave a GI50 [34] of 0.0509 µM, a TGI [34] of 2.7 µM and a GI50 [35] of 0.0743 µM. For the same compound, the TGI [35] was 16.9 µM, the GI50 [36] was 0.0347 µM and the TGI [36] was 1.23 µM. It also gave a GI50 [37] of 0.0441 µM, a TGI [37] of 6.51 µM and a GI50 [38] of 0.0462 µM. The TGI [38] was 1.35 µM, the GI50 [39] was 0.029 µM and the TGI [39] was 5.67 µM. It also gave a GI50 [40] of 0.0634 µM, a TGI [40] of 4.7 µM and a GI50 [41] of 0.0697 µM. For the same compound, the TGI [41] was 11.7 µM, the GI50 [42] was 0.0537 µM and the TGI [42] was 15.6 µM. The GI50 [43] was 0.0309 µM, the TGI [43] was > 100 µM and the GI50 [44] was 0.0721 µM. The TGI [44] was 15.2 µM, the GI50 [45] was 5.95 µM and the TGI [45] was 34.2 µM. It also gave a GI50 [46] of 0.0841 µM, a TGI [46] of 3.47 µM and a GI50 [47] of 0.0564 µM. It also gave a TGI [47] of 21.2 µM, a GI50 [48] of 0.0738 µM and a TGI [48] of 10.4 µM. The GI50 [49] was 2.7 µM, the TGI [49] was 36.8 µM and the GI50 [50] was 0.34 µM. It also gave a TGI [50] of 25.5 µM, a GI50 [51] of 0.0294 µM and a TGI [51] of 7.68 µM. For the same compound, the GI50 [52] was 15.6 µM, the TGI [52] was 29.7 µM and the GI50 [53] was 0.0167 µM. For the same compound, the TGI [53] was 0.0525 µM, the GI50 [54] was 0.0357 µM and the TGI [54] was > 100 µM. The GI50 [55] was 0.039 µM, the TGI [55] was 0.692 µM and the GI50 [56] was 0.0265 µM. For the same compound, the TGI [56] was 0.1 µM, the GI50 [57] was 0.364 µM and the TGI [57] was 19.2 µM.
With `O=c1[nH]c2ccccc2cc1CSc1ccc(Nc2nccc(-c3ccc(C(F)(F)F)cc3)n2)cc1` the GI50 [1] was 0.198 µM, the TGI [1] was 2.61 µM and the GI50 [2] was 29.2 µM. For the same compound, the TGI [2] was > 100 µM, the GI50 [3] was 9.82 µM and the TGI [3] was 74.1 µM. For the same compound, the GI50 [4] was 6.19 µM, the TGI [4] was 28.7 µM and the GI50 [5] was 4.82 µM. The TGI [5] was 19.6 µM, the GI50 [6] was 2.32 µM and the TGI [6] was 10.3 µM. It also gave a GI50 [7] of 6.77 µM, a TGI [7] of 61.5 µM and a GI50 [8] of 18.7 µM. The TGI [8] was 39.5 µM, the GI50 [9] was 2.27 µM and the TGI [9] was 69.7 µM. It also gave a GI50 [10] of 3.63 µM, a TGI [10] of 19.5 µM and a GI50 [11] of 16.7 µM. For the same compound, the TGI [11] was 40.8 µM, the GI50 [12] was 1.62 µM and the TGI [12] was 5.72 µM. The GI50 [58] was 2.67 µM, the TGI [58] was 13 µM and the GI50 [13] was 94.3 µM. The TGI [13] was > 100 µM, the GI50 [14] was 15.6 µM and the TGI [14] was 30.6 µM. The GI50 [15] was 3.33 µM, the TGI [15] was 18.2 µM and the GI50 [16] was 6.51 µM. For the same compound, the TGI [16] was 22.6 µM, the GI50 [17] was 0.403 µM and the TGI [17] was 4.64 µM. For the same compound, the GI50 [18] was 3.51 µM, the TGI [18] was > 100 µM and the GI50 [19] was 13.2 µM. For the same compound, the TGI [19] was > 100 µM, the GI50 [20] was 2.12 µM and the TGI [20] was 10.1 µM. The GI50 [21] was 0.714 µM, the TGI [21] was 3.88 µM and the GI50 [22] was 61.6 µM. The TGI [22] was > 100 µM, the GI50 [23] was 30.6 µM and the TGI [23] was > 100 µM. The GI50 [24] was 16.8 µM, the TGI [24] was 61.3 µM and the GI50 [25] was 5.53 µM. For the same compound, the TGI [25] was > 100 µM, the GI50 [26] was 15.4 µM and the TGI [26] was 45.9 µM. The GI50 [27] was 3.5 µM, the TGI [27] was 40.5 µM and the GI50 [28] was 2.7 µM. For the same compound, the TGI [28] was 10.9 µM, the GI50 [29] was 2.32 µM and the TGI [29] was 15.2 µM. The GI50 [30] was 4.55 µM, the TGI [30] was > 100 µM and the GI50 [31] was 1.66 µM. The TGI [31] was 7.13 µM, the GI50 [32] was 4.83 µM and the TGI [32] was > 100 µM. The GI50 [33] was 1.32 µM, the TGI [33] was 6.21 µM and the GI50 [34] was 1.52 µM. The TGI [34] was 3.8 µM, the GI50 [35] was 1.85 µM and the TGI [35] was 10.8 µM. The GI50 [36] was 3.46 µM, the TGI [36] was > 100 µM and the GI50 [37] was 0.0885 µM. The TGI [37] was 11.6 µM, the GI50 [38] was 0.0643 µM and the TGI [38] was 1.53 µM. For the same compound, the GI50 [39] was 2.66 µM, the TGI [39] was 17.1 µM and the GI50 [40] was 1.94 µM. The TGI [40] was 5.97 µM, the GI50 [41] was 1.66 µM and the TGI [41] was 9.04 µM. The GI50 [42] was 1.53 µM, the TGI [42] was 3.29 µM and the GI50 [59] was 1.84 µM. The TGI [59] was 54.3 µM, the GI50 [43] was > 100 µM and the TGI [43] was > 100 µM. The GI50 [44] was 17 µM, the TGI [44] was 43.6 µM and the GI50 [45] was 1.6 µM. The TGI [45] was 3.97 µM, the GI50 [46] was 6.89 µM and the TGI [46] was > 100 µM. The GI50 [47] was 1.81 µM, the TGI [47] was 4.45 µM and the GI50 [48] was 4 µM. It also gave a TGI [48] of 18.8 µM, a GI50 [49] of 1.23 µM and a TGI [49] of 3.95 µM. It also gave a GI50 [50] of 2.97 µM, a TGI [50] of 20.9 µM and a GI50 [51] of 15.4 µM. The TGI [51] was 33 µM, the GI50 [52] was 1.93 µM and the TGI [52] was 3.84 µM. For the same compound, the GI50 [53] was 11.9 µM, the TGI [53] was 55.4 µM and the GI50 [54] was 13.9 µM. The TGI [54] was > 100 µM, the GI50 [55] was 1.38 µM and the TGI [55] was 3.58 µM. The GI50 [56] was > 100 µM, the TGI [56] was > 100 µM and the GI50 [57] was 20.6 µM. The TGI [57] was > 100 µM.
